Measurements reported in patent US12377069B2, “Compounds, compositions, methods of using, and methods for preparing compounds” (UNIVERSITY OF LOUISVILLE RESEARCH FOUNDATION, INC., priority 2018, dated 2025).

Tests used:
Nrf2^−/− mice = assay: TNBS-induced colitis in Nrf2^−/− mice; format: in vivo, mouse; conditions: 20 mg/kg every 12 h post TNBS
Procedure: FIG. 7: UroA/UAS03 utilize Nrf2 pathways to mitigate colitis. (A-F) Colitis was induced using TNBS in C57BL/6 (WT) and Nrf2^−/− mice (n=4-5/group 7-8 week old age). Mice were treated with Veh or UroA/UAS03 (20 mg/kg bodyweight) every 12 h post TNBS administration ending at 72 h. Representative data from two independent experiments is shown. (A) TNBS-induced colitis experimental design and treatment regimen. (B) Percent body weight loss (No TNBS− Solid black line; Veh+TNBS− Solid red line; UroA+TNBS− Solid blue line; UAS03+TNBS− Solid purple line), (C) representative colon images, (D) colon lengths, (E) gut permeability, (F) serum levels of IL-6 and TNF-α were determined. Statistical analysis was performed (unpaired t-test) using Graphpad Prism software. Error bars, ±SEM ***p<0.001; **p<0.01 *p<0.05.
2,4,6-Trinitrobenzenesulfonic acid (TNBS)-induced colitis: Male C57BL/6 or Nrf2^−/− mice (6-8 week old age mice) were anesthetized with ketamine/xylazine (100 mg/12.5 mg/kg IP) mixture and administered with single dose of TNBS (2.5 mg/mice; Sigma Aldrich, USA) in 50% ethanol. After administration of TNBS, mice were held upside down for 30-60 sec to ensure proper distribution of TNBS in the colon. Control group received 50% ethanol without TNBS. Mice with TNBS were randomly divided into three groups, viz. vehicle (0.25% sodium carboxymethylcellulose (CMC)), UroA and UAS03. UroA or UAS03 was resuspended in 0.25% sodium-CMC at desired concentrations. The mice were given orally Veh or UroA or UAS03 in 100 μl at desired concentrations (4 or 20 mg/kg/body weight). The treatment started after 12 hours of TNBS administration and every 12 hours thereafter up to 72 hours. The experiment was terminated post 60 h TNBS, where AhR^−/− mice were involved. In some experiments, we treated only once at post 12 h TNBS administration. TNBS administered and control mice were euthanized for tissue and plasma collection after 80 hours of TNBS/ethanol treatment. Mice were examined for colitis phenotype.

C57BL/6 mice = assay: Chronic low dose alcohol model; format: in vivo, mouse; conditions: 20 mg/kg orally 2 h prior to EtOH 3 g/kg twice daily, 5 days
Procedure: C57BL/6 mice (10 wk old age) were used in low dose chronic ALD models. Mice were treated with EtOH (3 g/kg) daily twice orally for 5 days at 3 g/kg, UroA (20 mg/kg) was given orally 2 h prior to EtOH treatment. Mice were euthanized on day 6 and analyzed the indicated parameters. Error bars, ±SEM. Statistics were performed using 2 way ANOVA multiple comparisons. * p<0.05, ** p<0.01, *** p<0.001.
C57BL/6 mice (n=5 per group) were treated with EtOH (3 g/kg) twice daily orally for 5 days. UroA (20 mg/kg) was given orally 2 h prior to EtOH treatment. We evaluated gut permeability and inflammation parameters both in serum and liver (FIG. 17).

colon cancer cells = assay: Clonogenic and wound healing assays; format: cell-based
P-glycoprotein (P-gp) = P-glycoprotein (P-gp) (Homo sapiens, UniProt P08183)
Source text: Therefore, blocking its activity and/or downregulating the expression of BCRP, P-gp could reverse the effect and sensitize the cancer cells.

Sequence of P-glycoprotein (P-gp) (P08183 whole entry): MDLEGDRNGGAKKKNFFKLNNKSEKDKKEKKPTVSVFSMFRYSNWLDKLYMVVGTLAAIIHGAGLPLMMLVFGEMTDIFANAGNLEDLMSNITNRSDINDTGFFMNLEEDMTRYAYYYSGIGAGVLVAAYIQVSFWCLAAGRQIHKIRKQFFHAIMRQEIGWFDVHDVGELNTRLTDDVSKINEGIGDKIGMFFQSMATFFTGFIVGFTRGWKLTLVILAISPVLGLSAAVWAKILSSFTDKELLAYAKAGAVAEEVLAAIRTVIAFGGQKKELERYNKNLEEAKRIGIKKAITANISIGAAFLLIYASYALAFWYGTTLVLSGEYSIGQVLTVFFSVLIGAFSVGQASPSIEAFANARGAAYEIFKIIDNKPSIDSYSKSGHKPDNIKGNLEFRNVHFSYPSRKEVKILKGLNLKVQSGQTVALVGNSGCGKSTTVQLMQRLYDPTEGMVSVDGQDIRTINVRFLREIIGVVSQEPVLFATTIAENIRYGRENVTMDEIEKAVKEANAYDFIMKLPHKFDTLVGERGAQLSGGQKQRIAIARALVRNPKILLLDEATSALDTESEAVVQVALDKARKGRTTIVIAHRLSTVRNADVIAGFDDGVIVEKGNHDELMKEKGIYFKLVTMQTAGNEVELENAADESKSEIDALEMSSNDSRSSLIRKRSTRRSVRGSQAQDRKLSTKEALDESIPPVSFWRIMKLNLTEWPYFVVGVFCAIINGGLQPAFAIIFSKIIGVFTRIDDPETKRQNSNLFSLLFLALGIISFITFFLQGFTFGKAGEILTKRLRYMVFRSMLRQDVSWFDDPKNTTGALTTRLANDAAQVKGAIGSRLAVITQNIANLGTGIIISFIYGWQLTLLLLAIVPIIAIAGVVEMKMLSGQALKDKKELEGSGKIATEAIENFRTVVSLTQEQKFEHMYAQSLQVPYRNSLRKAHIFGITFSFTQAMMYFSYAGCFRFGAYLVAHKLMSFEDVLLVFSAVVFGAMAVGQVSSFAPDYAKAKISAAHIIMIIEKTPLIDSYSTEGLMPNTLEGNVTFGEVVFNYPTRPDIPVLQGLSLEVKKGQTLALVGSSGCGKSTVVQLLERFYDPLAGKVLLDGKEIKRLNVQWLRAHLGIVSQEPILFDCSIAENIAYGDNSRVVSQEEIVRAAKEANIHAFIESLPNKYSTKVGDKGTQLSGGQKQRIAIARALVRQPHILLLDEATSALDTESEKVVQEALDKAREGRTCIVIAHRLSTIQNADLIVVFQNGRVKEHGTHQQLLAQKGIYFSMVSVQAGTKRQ

Row | Compound | barrier function (FITC-dextran leakage) in Nrf2^−/− mice (Nrf2^−/− mice) | body weight loss and colon shortening in Nrf2^−/− mice (Nrf2^−/− mice) | serum IL-6 and TNF-α levels in Nrf2^−/− mice (Nrf2^−/− mice) | chronic low dose alcohol induced gut barrier dysfunction and inflammation (C57BL/6 mice) | colon cancer cell colony formation (clonogenic assay) (colon cancer cells) | cell growth and migration into scratch (wound healing assay) (colon cancer cells; in combination with 5FU) | drug efflux activity of P-glycoprotein (P-gp) (P-glycoprotein (P-gp)) | efflux of Rh123 (P-glycoprotein (P-gp); 50 μM)
1 | Oc1ccc2c(c1)COc1cc(O)ccc1-2 [UAS03, 6H-benzo[c]chromene-3,8-diol] | did not enhance barrier function | did not appear to restore body weight loss | partially reduced |  |  |  |  | 
2 | O=c1oc2cc(O)ccc2c2ccc(O)cc12 [UroA, 3,8-dihydroxy-6H-dibenzo[b,d]pyran-6-one] | did not enhance barrier function | did not appear to restore body weight loss | partially reduced | protects against | reduced | inhibited cell growth and migration | decreased drug efflux activities | blocked efflux of Rh123
